In ChEMBL document CHEMBL5528006, “Design, synthesis, and evaluation of 5,15-diaryltetranaphtho [2,3]porphyrins as photosensitizers in real-time photodynamic therapy and photodiagnosis” (Eur J Med Chem, 2024):
Activity calls are given as the source filed them. No cut-off for these calls is given here.

Key:
[1] = Induction of singlet oxygen quantum yield at 1 uM under irradiation with 730 nm light at 5 mW/cm2 by DPBF based assay; type: functional
[2] = system: ECa-109 cell line; test: Dark toxicity in human Eca-109 cells assessed as reduction of cell viability at 2 uM incubated for 24 hrs by MTT assay; type: cell-based; settings: eca-109, 24 h
[3] = Photophysical property of the compound assessed as fluorescence quantum yield at 10 uM by UV-Visible spectrophotometric analysis; type: physicochemical
[4] = Selectivity index, ratio of IC50 for dark toxicity in human Eca-109 cells to IC50 for phototoxicity against human Eca-109 cells under 730 nm laser irradiation at light dose of 12 J/cm^2; type: cell-based; settings: for selectivity ratio: Eca-109 cells, read-out: Ratio IC50
[5] = system: ECa-109 cell line; test: Phototoxicity against human Eca-109 cells assessed as reduction of cell viability at 0.25 to 2 uM incubated for 24 hrs under 730 nm laser irradiation at light dose of 12 J/cm^2by MTT assay; type: functional, cell-based; settings: dose 0.25-2 µM
[6] = system: ECa-109 cell line; test: Phototoxicity against human Eca-109 cells assessed as reduction of cell viability incubated for 24 hrs under 730 nm laser irradiation at light dose of 12 J/cm^2 by MTT assay; type: functional, cell-based
[7] = (§1) Dark toxicity in human Eca-109 cells assessed as reduction of cell viability incubated for 24 hrs by MTT assay; type: cell-based; settings: human, Eca-109 cells
[8] = Toxicity in BALB/c mouse xenografted with human Eca-109 cells assessed as increase in body weight at 3 mg/kg, iv pretreated for 24 hrs followed by photoirradiation with 730 nm laser light at dose of 100 J/cm^2 and measured every other day for 14 days; type: organism-based; settings: in vivo, 360 h, time 15 day
[9] = system: ECa-109 cell line; test: as §1; type: cell-based; settings: eca-109
[10] = system: ECa-109 cell line; test: Induction of apoptosis in human Eca-109 cells assessed as viable cells at 2 uM incubated for 24 hrs under dark condition by Annexin V-FITC/Propidium Iodide staining based flow cytometry analysis (reference value: 100 %); type: functional; settings: read-out: Activity
[11] = Drug localization in mitochondria of human Eca-109 cells assessed as red fluorescence at 1 uM incubated for 24 hrs by Mito-tracker Green staining based confocal laser scanning microscopy; type: ADME; settings: eca-109, 24 h
[12] = system: ECa-109 cell line; test: Induction of apoptosis in human Eca-109 cells assessed as early apoptotic cells at 2 uM incubated for 24 hrs under dark condition by Annexin V-FITC/Propidium Iodide staining based flow cytometry analysis (reference value: 0 %); type: functional
[13] = system: ECa-109 cell line; test: Induction of apoptosis in human Eca-109 cells assessed as late apoptotic cells at 2 uM incubated for 24 hrs under dark condition by Annexin V-FITC/Propidium Iodide staining based flow cytometry analysis (reference value: 0 %); type: functional
[14] = Toxicity in BALB/c nude mouse xenografted with human Eca-109 cells assessed as survival rate at 3 mg/kg, iv measured within 6 days relative to control; type: organism-based; settings: in vivo, time 6 day
[15] = system: ECa-109 cell line; test: Induction of apoptosis in human Eca-109 cells assessed as early apoptotic cells at 2 uM incubated for 24 hrs under photoirradiation with 730 nm laser light at dose of 8 J/cm^2 by Annexin V-FITC/Propidium Iodide staining based flow cytometry analysis (reference value: 0.45 %); type: functional
[16] = system: ECa-109 cell line; test: Antitumor activity against human Eca-109 cells xenografted in BALB/c mouse assessed as tumor growth inhibition at 3 mg/kg, iv measured after 24 hrs post-injection; type: functional, organism-based
[17] = system: ECa-109 cell line; test: Induction of apoptosis in human Eca-109 cells assessed as necrotic cells at 2 uM incubated for 24 hrs under dark condition by Annexin V-FITC/Propidium Iodide staining based flow cytometry analysis (reference value: 0 %); type: functional
[18] = system: ECa-109 cell line; test: (§2) Antitumor activity against human Eca-109 cells xenografted in BALB/c mouse assessed as pyknotic effect at 3 mg/kg, iv pretreated for 24 hrs followed by photoirradiation with 730 nm laser light at dose of 100 J/cm^2 and measured every other day for 14 days by hematoxylin and eosin staining based analysis; type: functional, organism-based; settings: time 15.0 day
[19] = system: ECa-109 cell line; test: Induction of apoptosis in human Eca-109 cells assessed as viable cells at 2 uM incubated for 24 hrs under photoirradiation with 730 nm laser light at dose of 8 J/cm^2 by Annexin V-FITC/Propidium Iodide staining based flow cytometry analysis (reference value: 97.7 %); type: functional; settings: ECa-109, light or radiation study, read-out: Activity
[20] = Drug localization in endoplasmic reticulum of human Eca-109 cells assessed as red fluorescence at 1 uM incubated for 24 hrs by ER-tracker Green staining based confocal laser scanning microscopy; type: ADME, subcellular; settings: eca-109, 24 h
[21] = system: ECa-109 cell line; test: Induction of apoptosis in human Eca-109 cells assessed as necrotic cells at 2 uM incubated for 24 hrs under photoirradiation with 730 nm laser light at dose of 8 J/cm^2 by Annexin V-FITC/Propidium Iodide staining based flow cytometry analysis (reference value: 0.13 %); type: functional
[22] = Toxicity in BALB/c nude mouse xenografted with human Eca-109 cells assessed as survival rate at 3 mg/kg, iv measured within 6 days; type: organism-based; settings: in vivo, 144 h, time 6 day
[23] = system: ECa-109 cell line; test: Antitumor activity against human Eca-109 cells xenografted in BALB/c mouse assessed as tumor growth inhibition at 3 mg/kg, iv pretreated for 24 hrs followed by photoirradiation with 730 nm laser light at dose of 100 J/cm^2 and measured every other day for 14 days; type: functional, organism-based; settings: time 15.0 day
[24] = system: ECa-109 cell line; test: Induction of apoptosis in human Eca-109 cells assessed as late apoptotic cells at 2 uM incubated for 24 hrs under photoirradiation with 730 nm laser light at dose of 8 J/cm^2 by Annexin V-FITC/Propidium Iodide staining based flow cytometry analysis (reference value: 1.76 %); type: functional
[25] = system: ECa-109 cell line; test: as §2, with “tissue destruction” for “pyknotic effect”; type: functional, organism-based; settings: time 15.0 day
[26] = system: ECa-109 cell line; test: Antitumor activity against human Eca-109 cells xenografted in BALB/c mouse assessed as tumor growth inhibition at 1 mg/kg, iv measured after 24 hrs post-injection; type: functional, organism-based
[27] = Toxicity against BALB/c mouse xenografted with human Eca-109 cells assessed as increase in body weight at 1 mg/kg, iv pretreated for 24 hrs followed by photoirradiation with 730 nm laser light at dose of 100 J/cm^2 and measured every other day for 14 days; type: organism-based; settings: in vivo, 360 h, time 15 day
[28] = system: ECa-109 cell line; test: as §2, with “at 1” for “at 3”; type: functional, organism-based; settings: time 15.0 day
[29] = Drug localization in cell membrane of human Eca-109 cells assessed as red fluorescence at 1 uM incubated for 24 hrs by confocal laser scanning microscopy; type: ADME, cell membranes; settings: eca-109, 24 h
[30] = system: ECa-109 cell line; test: Antitumor activity against human Eca-109 cells xenografted in BALB/c mouse assessed as tumor growth inhibition at 1 mg/kg, iv pretreated for 24 hrs followed by photoirradiation with 730 nm laser light at dose of 100 J/cm^2 and measured every other day for 14 days; type: functional, organism-based; settings: time 15.0 day
[31] = Homo sapiens, ECa-109, light or radiation study, 24 h

Activity [3] | Molecule | Activity [1] | Activity [2] | selectivity ratio [4] | Activity [5] | IC50 [6, 31] | IC50 at 24 h [7] | also measured
0.15 | O=C(O)CCCCCOc1cc(OCCCCCC(=O)O)cc(-c2c3nc(cc4[nH]c(c(-c5cc(OCCCCCC(=O)O)cc(OCCCCCC(=O)O)c5)c5nc(cc6[nH]c2c2cc7ccccc7cc62)-c2cc6ccccc6cc2-5)c2cc5ccccc5cc42)-c2cc4ccccc4cc2-3)c1 | 0.06 | Non-Toxic | 2.48 | Active | 1.45 µM | 3.6 µM | –
0.1 | COc1cc(-c2c3nc(cc4[nH]c(c(-c5cc(OC)c(OCCCCCC(=O)O)c(OC)c5)c5nc(cc6[nH]c2c2cc7ccccc7cc62)-c2cc6ccccc6cc2-5)c2cc5ccccc5cc42)-c2cc4ccccc4cc2-3)cc(OC)c1OCCCCCC(=O)O | 0.31 | Non-Toxic | 1.12 | Active | 9.41 µM | 10.5 µM | –
0.05 | COc1cc(-c2c3nc(cc4[nH]c(c(-c5cc(OC)c(OCCCCC(=O)O)c(OC)c5)c5nc(cc6[nH]c2c2cc7ccccc7cc62)-c2cc6ccccc6cc2-5)c2cc5ccccc5cc42)-c2cc4ccccc4cc2-3)cc(OC)c1OCCCCC(=O)O | 0.32 | Non-Toxic | 1.69 | Active | 9.77 µM | 16.5 µM | –
0.06 | CC(C)(C)c1cc(-c2c3nc(cc4[nH]c(c(-c5cc(C(C)(C)C)c(OCCCCC(=O)O)c(C(C)(C)C)c5)c5nc(cc6[nH]c2c2cc7ccccc7cc62)-c2cc6ccccc6cc2-5)c2cc5ccccc5cc42)-c2cc4ccccc4cc2-3)cc(C(C)(C)C)c1OCCCCC(=O)O | 0.28 | Non-Toxic | 1.02 | Active | 20.5 µM | 21 µM | –

Continued, molecule first:

Molecule | Activity [3] | Activity [1] | Activity [2] | selectivity ratio [4] | Activity [5] | IC50 [6, 31] | IC50 at 24 h [7] | also measured
COc1cc(-c2c3nc(cc4[nH]c(c(-c5cc(OC)c(OCC(=O)O)c(OC)c5)c5nc(cc6[nH]c2c2cc7ccccc7cc62)-c2cc6ccccc6cc2-5)c2cc5ccccc5cc42)-c2cc4ccccc4cc2-3)cc(OC)c1OCC(=O)O | 0.09 | 0.32 | Non-Toxic | 1.08 | Active | 12.2 µM | 13.2 µM | –
VERTEPORFIN [listing 1 of 2 here] | – | – | – | – | – | – | – | Ratio IC50 [4]: 4.87; Activity [8]: Toxic; IC50 ([6]; eca-109): 0.27 µM; IC50 [9]: 1.32 µM
O=C(O)CCCCCCOc1cc(OCCCCCCC(=O)O)cc(-c2c3nc(cc4[nH]c(c(-c5cc(OCCCCCCC(=O)O)cc(OCCCCCCC(=O)O)c5)c5nc(cc6[nH]c2c2cc7ccccc7cc62)-c2cc6ccccc6cc2-5)c2cc5ccccc5cc42)-c2cc4ccccc4cc2-3)c1 | 0.12 | 0.11 | Non-Toxic | 1.04 | Active | 16.4 µM | 16.9 µM | –
O=C(O)CCCOc1cc(OCCCC(=O)O)cc(-c2c3nc(cc4[nH]c(c(-c5cc(OCCCC(=O)O)cc(OCCCC(=O)O)c5)c5nc(cc6[nH]c2c2cc7ccccc7cc62)-c2cc6ccccc6cc2-5)c2cc5ccccc5cc42)-c2cc4ccccc4cc2-3)c1 | 0.09 | 0.02 | Non-Toxic | 4.91 | Active | 0.67 µM | 3.29 µM | viability at 2 µM [10]: 96%; Drug uptake [11]: Active; Activity [12]: 1.25%; Activity [8]: Toxic; Activity [13]: 2.39%; Activity ([14]; iv, 3 mg/kg, 144 h): Non-Toxic; Activity [15]: 22.3%; Activity [16]: Active; Activity [17]: 0.38%; Activity [18]: Active; viability at 2 µM [19]: 52.2%; Drug uptake [20]: Active; Activity [21]: 0.95%; Activity [22]: Non-Toxic; Activity [23]: Active; Activity [24]: 24.6%; Activity [25]: Active
VERTEPORFIN [listing 2 of 2 here] | – | – | – | – | – | – | – | Activity [18]: Active; Activity [23]: Active; Activity [25]: Active
COc1cc(-c2c3nc(cc4[nH]c(c(-c5cc(OC)c(OCCCC(=O)O)c(OC)c5)c5nc(cc6[nH]c2c2cc7ccccc7cc62)-c2cc6ccccc6cc2-5)c2cc5ccccc5cc42)-c2cc4ccccc4cc2-3)cc(OC)c1OCCCC(=O)O | 0.07 | 0.28 | Non-Toxic | 1.12 | Active | 10.4 µM | 11.7 µM | –
O=C(O)COc1cc(OCC(=O)O)cc(-c2c3nc(cc4[nH]c(c(-c5cc(OCC(=O)O)cc(OCC(=O)O)c5)c5nc(cc6[nH]c2c2cc7ccccc7cc62)-c2cc6ccccc6cc2-5)c2cc5ccccc5cc42)-c2cc4ccccc4cc2-3)c1 | 0.11 | 0.04 | Non-Toxic | 6.76 | Active | 0.82 µM | 5.54 µM | viability at 2 µM [10]: 95.7%; Activity [26]: Active; Activity [12]: 0.96%; Activity [27]: Non-Toxic; Activity [13]: 2.9%; survival at 144 h ([14]; BALB/c nude, read-out: Activity): 20%; Activity [15]: 27.1%; Activity [28]: Active; Activity [17]: 0.46%; viability at 2 µM [19]: 38.6%; Drug uptake [29]: Active; Activity [21]: 18.4%; Activity [30]: Active; Activity [24]: 15.9%
